Measurements from patent US10047075B2, “Pyridines and pyrimidines and use thereof” (Purdue Pharma L.P., priority 2014, dated 2018).
Read-outs that look alike come from different tables or passages of the source.

Tests used:
[1] = molecular target: human Nav1.7 (Homo sapiens, UniProt Q15858); test: FLIPR or FLIPR TETRA sodium dye assay with KCl and test article pre-incubation (CoroNa Green, veratridine + scorpion venom); format: cell-based
[2] = molecular target: hNav1.7 (Homo sapiens, UniProt Q15858); test: Electrophysiology (EP) assay, whole-cell patch clamp, hNav1.7 expressing HEK-293 cells; format: cell-based; conditions: hNav1.7 HEK-293 cells; affinity for the inactivated state; read-out: Nav1.7 Activity (μM) EP assay Ki
Method: The hNav1.7 expressing HEK-293 cells are plated on 35 mm culture dishes pre-coated with poly-D-lysine in standard DMEM culture media (Mediatech, Inc., Herndon, Va.) and incubated in a 5% CO2 incubator at 37° C. Cultured cells are used approximately 12-48 hours after plating.
The hNav1.7 expressing HEK-293 cells are plated on tissue culture flasks in standard DMEM culture media (Mediatech, Inc.) and incubated in a 5% CO2 incubator at 37° C. Cultured cells are used approximately 12-48 hours after plating.
On the day of experimentation, the 35 mm dish is placed on the stage of an inverted microscope equipped with a perfusion system that continuously perfuses the culture dish with fresh recording media. A gravity driven superfusion system is used to apply test solutions directly to the cell under evaluation. This “shooter” system consists of an array of glass pipettes connected to a motorized horizontal translator. The outlet of the shooter is positioned approximately 100 μm from the cell of interest.
Whole cell currents are recorded using the whole-cell patch clamp configuration using an Axopatch 200B amplifier (Axon Instruments, Foster City Calif.), 1322A A/D converter (Axon Instruments) and pClamp software (v. 8; Axon Instruments) and stored on a personal computer. Gigaseals are formed and the whole-cell configuration is established in voltage clamp mode, and membrane currents generated by hNav1.7 channels are recorded. Borosilicate glass pipettes with resistance values between 1.5 and 2.0 MΩ when filled with pipette solution are used and series resistance (<5 MΩ) is compensated by 75-80%. Signals are sampled at 50 kHz and low pass filtered at 3 kHz.
Automated Electrophysiology: On the day of experimentation, cells are prepared by removing media and digesting with appropriate enzymes to suspend cells in external solution.
Whole cell currents are recorded using the whole-cell patch clamp configuration using an Patchliner (Nanion Technologies, Munich Germany), EPC 10 quadro amplifiers (HEKA, Bellmore, N.Y.) and PatchControl HT 10905 (Nanion Technologies) and PatchMaster v2x73 software (HEKA) and stored on a personal computer. Gigaseals are formed and the whole-cell configuration is established in voltage clamp mode, and membrane currents generated by hNav1.7 are recorded. NPC-16 chips have resistance values between 1.0 and 2.0 MΩ when filled with pipette solution and series resistance (<5 MΩ). Signals are sampled at 25 kHz and low pass filtered at 3 kHz.
After establishing the whole-cell configuration in voltage clamp mode, voltage protocols are run to establish the 1) test potential (Vmax), 2) holding potential (Vh), and 3) the conditioning potential for each cell.
After establishing the whole-cell configuration in voltage clamp mode, a standard I-V protocol is run to determine the potential at which the maximal current (Imax) is elicited. This potential is the test potential (Vt). To determine a conditioning potential at which 100% of channels are in the inactivated state, a standard steady-state inactivation (SSIN) protocol is run using a series of fifteen 100 ms-long depolarizing prepulses, incrementing in 10 mV steps, immediately followed by a 5 ms testing pulse to Vmax. This protocol also permits determination of the holding potential at which all channels are in the resting state.
For compounds causing significant retardation of recovery from inactivation, an estimate of the affinity for the inactivated state of the channel (Ki) is generated using the following protocol. From the negative, no residual inactivation, holding potential, the cell is depolarized to the conditioning voltage for 2-5 seconds, returned to the negative holding potential for 10-20 ms to relieve fast inactivation and then depolarized to the test potential for ˜15 ms. This voltage protocol is repeated every 10-15 seconds, first to establish a baseline in the absence of the test compound, then in the presence of the test compound. […]

[3] = molecular target: Nav1.2 (Homo sapiens, UniProt Q99250); conditions: read-out: TTX IC50; cited from earlier work
[4] = molecular target: Nav1.8 (Homo sapiens, UniProt Q9Y5Y9); conditions: read-out: TTX IC50; cited from earlier work
[5] = molecular target: Nav1.9 (Homo sapiens, UniProt Q9UI33); conditions: read-out: TTX IC50; cited from earlier work
[6] = molecular target: Nav1.6 (Homo sapiens, UniProt Q9UQD0); conditions: read-out: TTX IC50; cited from earlier work
[7] = molecular target: Nav1.3 (Homo sapiens, UniProt Q9NY46); conditions: read-out: TTX IC50; cited from earlier work
[8] = molecular target: Nav1.1 (Homo sapiens, UniProt P35498); conditions: read-out: TTX IC50; cited from earlier work
[9] = recombinant human Nav1.7 in HEK293 cells

Sequence of human Nav1.7 (Q15858 1-1977 isoform Q15858-3): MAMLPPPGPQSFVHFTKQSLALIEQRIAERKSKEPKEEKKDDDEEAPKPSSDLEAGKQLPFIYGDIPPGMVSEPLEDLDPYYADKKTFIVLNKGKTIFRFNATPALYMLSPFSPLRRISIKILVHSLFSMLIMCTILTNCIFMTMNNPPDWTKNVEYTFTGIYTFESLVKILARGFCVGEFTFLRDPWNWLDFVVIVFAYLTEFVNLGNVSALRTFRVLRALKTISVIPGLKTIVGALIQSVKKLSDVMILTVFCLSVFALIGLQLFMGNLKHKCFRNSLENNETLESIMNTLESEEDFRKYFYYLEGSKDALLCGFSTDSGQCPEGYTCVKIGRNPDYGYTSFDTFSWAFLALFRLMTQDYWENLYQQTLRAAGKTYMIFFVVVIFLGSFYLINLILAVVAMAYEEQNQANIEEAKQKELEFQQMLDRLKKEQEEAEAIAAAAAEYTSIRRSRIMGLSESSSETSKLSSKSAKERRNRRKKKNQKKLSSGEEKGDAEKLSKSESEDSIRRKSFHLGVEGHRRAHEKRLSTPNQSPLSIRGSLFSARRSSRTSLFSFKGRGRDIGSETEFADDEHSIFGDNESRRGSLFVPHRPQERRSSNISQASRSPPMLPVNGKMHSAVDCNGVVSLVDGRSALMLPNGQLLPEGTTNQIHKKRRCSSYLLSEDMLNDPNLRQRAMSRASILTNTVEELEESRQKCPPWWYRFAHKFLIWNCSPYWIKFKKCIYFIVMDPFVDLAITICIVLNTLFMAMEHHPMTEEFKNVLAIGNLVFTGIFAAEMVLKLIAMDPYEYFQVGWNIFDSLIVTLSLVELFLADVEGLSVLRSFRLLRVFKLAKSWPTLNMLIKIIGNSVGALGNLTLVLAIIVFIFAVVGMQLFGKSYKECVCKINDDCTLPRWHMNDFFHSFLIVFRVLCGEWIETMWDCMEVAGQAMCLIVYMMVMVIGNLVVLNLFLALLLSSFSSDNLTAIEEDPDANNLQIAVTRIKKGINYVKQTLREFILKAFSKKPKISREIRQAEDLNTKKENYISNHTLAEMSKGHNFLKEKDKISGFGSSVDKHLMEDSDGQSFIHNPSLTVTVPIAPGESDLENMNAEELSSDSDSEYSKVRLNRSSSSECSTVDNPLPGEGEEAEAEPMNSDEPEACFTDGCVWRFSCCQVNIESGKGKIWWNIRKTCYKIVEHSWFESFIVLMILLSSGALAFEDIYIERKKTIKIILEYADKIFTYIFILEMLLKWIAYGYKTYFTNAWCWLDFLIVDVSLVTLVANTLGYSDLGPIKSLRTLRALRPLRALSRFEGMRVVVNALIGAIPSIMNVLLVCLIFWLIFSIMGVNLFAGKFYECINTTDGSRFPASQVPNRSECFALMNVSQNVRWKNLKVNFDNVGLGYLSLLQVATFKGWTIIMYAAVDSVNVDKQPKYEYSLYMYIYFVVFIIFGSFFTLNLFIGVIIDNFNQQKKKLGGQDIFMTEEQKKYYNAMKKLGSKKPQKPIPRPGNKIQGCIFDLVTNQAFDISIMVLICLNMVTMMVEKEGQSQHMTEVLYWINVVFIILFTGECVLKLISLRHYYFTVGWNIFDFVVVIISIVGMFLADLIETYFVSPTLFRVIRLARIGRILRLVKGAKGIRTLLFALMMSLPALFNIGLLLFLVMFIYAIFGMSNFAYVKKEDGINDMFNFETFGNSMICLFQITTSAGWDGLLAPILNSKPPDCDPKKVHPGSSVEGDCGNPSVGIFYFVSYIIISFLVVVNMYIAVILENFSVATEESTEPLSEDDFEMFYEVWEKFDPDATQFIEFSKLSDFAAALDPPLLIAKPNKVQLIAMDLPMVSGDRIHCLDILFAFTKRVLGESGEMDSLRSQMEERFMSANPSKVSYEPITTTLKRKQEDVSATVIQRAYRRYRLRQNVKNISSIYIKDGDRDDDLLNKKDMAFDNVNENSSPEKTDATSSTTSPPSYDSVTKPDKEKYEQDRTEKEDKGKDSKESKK
Sequence of hNav1.7 (Q15858 1-1977 isoform Q15858-3): as above
Sequence of Nav1.8 (Q9Y5Y9 whole entry, looked up): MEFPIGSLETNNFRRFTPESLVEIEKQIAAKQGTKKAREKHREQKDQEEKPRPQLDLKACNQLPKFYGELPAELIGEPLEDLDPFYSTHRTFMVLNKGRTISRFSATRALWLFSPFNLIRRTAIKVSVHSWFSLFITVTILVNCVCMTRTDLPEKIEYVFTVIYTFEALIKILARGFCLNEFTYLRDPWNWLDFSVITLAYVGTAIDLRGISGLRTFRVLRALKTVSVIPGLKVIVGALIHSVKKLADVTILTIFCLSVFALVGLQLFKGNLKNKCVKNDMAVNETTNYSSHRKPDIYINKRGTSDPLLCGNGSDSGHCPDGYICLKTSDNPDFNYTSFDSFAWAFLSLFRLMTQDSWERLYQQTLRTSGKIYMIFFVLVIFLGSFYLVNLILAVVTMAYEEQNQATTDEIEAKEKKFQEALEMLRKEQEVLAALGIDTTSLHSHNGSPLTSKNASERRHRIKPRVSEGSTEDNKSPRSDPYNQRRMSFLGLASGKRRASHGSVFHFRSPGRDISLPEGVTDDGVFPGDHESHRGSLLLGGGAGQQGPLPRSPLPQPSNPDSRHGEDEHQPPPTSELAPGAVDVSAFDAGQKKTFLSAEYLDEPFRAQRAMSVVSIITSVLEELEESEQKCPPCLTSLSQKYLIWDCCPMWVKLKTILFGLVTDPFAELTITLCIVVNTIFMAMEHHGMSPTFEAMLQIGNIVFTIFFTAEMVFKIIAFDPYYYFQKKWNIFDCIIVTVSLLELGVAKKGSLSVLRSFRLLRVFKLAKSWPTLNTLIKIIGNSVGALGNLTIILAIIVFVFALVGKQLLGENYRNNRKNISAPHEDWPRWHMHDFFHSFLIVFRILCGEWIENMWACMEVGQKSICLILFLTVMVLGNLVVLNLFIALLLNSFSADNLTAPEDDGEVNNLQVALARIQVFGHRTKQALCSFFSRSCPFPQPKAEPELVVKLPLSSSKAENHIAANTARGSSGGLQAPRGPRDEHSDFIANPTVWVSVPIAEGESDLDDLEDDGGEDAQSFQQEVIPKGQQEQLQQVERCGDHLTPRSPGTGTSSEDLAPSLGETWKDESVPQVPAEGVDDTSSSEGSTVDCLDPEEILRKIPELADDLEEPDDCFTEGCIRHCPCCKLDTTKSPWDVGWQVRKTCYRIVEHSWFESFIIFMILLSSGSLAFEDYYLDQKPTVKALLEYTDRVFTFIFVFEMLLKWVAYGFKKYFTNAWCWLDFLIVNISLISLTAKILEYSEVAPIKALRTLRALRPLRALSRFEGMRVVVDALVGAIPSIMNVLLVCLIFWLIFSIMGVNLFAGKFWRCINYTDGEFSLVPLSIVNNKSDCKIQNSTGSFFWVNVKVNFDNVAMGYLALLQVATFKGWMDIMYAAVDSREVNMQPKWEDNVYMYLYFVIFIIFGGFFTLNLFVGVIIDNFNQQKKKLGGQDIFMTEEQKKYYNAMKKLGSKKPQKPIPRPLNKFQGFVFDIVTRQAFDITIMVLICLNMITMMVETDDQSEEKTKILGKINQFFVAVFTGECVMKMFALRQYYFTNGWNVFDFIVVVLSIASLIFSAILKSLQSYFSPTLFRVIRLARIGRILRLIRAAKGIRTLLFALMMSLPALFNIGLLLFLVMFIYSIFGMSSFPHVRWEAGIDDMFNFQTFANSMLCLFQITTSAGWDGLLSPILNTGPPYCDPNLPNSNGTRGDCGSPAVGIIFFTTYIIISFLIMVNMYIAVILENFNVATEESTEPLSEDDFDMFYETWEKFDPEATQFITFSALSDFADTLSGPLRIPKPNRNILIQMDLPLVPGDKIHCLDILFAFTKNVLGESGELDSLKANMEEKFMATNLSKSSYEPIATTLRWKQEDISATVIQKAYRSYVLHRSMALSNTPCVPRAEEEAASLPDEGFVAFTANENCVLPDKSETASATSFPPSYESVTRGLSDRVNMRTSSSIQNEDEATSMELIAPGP

Row | SMILES | IC50 [1, 9] [µM] | Ki [2] [µM] | other results
1 | OC[C@@H](O)c1cccc(-c2ccc3c(c2)COCCN3c2ccc(C(F)(F)F)cc2)n1 [Compound 62, (S)-1-(6-(1-(4-(trifluoromethyl)phenyl)-1,2,3,5-tetrahydrobenzo[e][1,4]oxazepin-7-yl)pyridin-2-yl)ethane-1,2-diol] | 0.419 ± 0.058 | 0.458 ± 0.078 | –
2 | C[C@H](Nc1cc(C(N)=O)nc(-c2ccc3c(c2)OCCCN3c2ccc(C(F)(F)F)cc2)n1)C(N)=O [Compound 63, (S)-6-((1-amino-1-oxopropan-2-yl)amino)-2-(5-(4-(trifluoromethyl)phenyl)-2,3,4,5-tetrahydrobenzo[b][1,4]oxazepin-8-yl)pyrimidine-4-carboxamide] | 0.246 ± 0.029 | 0.344 ± 0.1 | –
3 | CN1CCN(c2ccc(C(F)(F)F)cc2)c2ccc(-c3cccc(C(N)=O)n3)cc2C1 [Compound 85, 6-(4-methyl-1-(4-(trifluoromethyl)phenyl)-2,3,4,5-tetrahydro-1H-benzo[e][1,4]diazepin-7-yl)picolinamide] | 0.607 ± 0.086 | 0.399 ± 0.2 | –
4 | OC[C@@H](O)c1cccc(-c2ccc3c(c2)CN(CC2CC2)CCN3c2ccc(C(F)(F)F)cc2)n1 [Compound 87, (S)-1-(6-(4-(cyclopropylmethyl)-1-(4-(trifluoromethyl)phenyl)-2,3,4,5-tetrahydro-1H-benzo[e][1,4]diazepin-7-yl)pyridin-2-yl)ethane-1,2-diol] | – | 0.548 ± 0.089 | IC50 [1]: 1.32 ± 0.133 µM
5 | CC(=O)N1CCN(c2ccc(C(F)(F)F)cc2)c2ccc(-c3cccc(C(N)=O)n3)cc2C1 [Compound 91, 6-(4-acetyl-1-(4-(trifluoromethyl)phenyl)-2,3,4,5-tetrahydro-1H-benzo[e][1,4]diazepin-7-yl)picolinamide] | 0.375 ± 0.062 | 0.3 ± 0.033 | –
6 | CC(=O)N1CCN(c2ccc(C(F)(F)F)cc2)c2ccc(-c3cccc([C@H](O)CO)n3)cc2C1 [Compound 96, (S)-1-(7-(6-(1,2-dihydroxyethyl)pyridin-2-yl)-1-(4-(trifluoromethyl)phenyl)-1,2,3,5-tetrahydro-4H-benzo[e][1,4]diazepin-4-yl)ethan-1-one] | 0.662 ± 0.035 | 0.627 ± 0.134 | –
7 | NC(=O)N1CCN(c2ccc(C(F)(F)F)cc2)c2ccc(-c3cccc([C@H](O)CO)n3)cc2C1 [Compound 98, (S)-7-(6-(1,2-dihydroxyethyl)pyridin-2-yl)-1-(4-(trifluoromethyl)phenyl)-1,2,3,5-tetrahydro-4H-benzo[e][1,4]diazepin-4-carboxamide] | – | 0.451 ± 0.092 | IC50 [1]: 0.973 ± 0.099 µM
8 | O=C(CO)N1CCN(c2ccc(C(F)(F)F)cc2)c2ccc(-c3cccc([C@H](O)CO)n3)cc2C1 [Compound 99, (S)-1-(7-(6-(1,2-dihydroxyethyl)pyridin-2-yl)-1-(4-(trifluoromethyl)phenyl)-1,2,3,5-tetrahydro-4H-benzo[e][1,4]diazepin-4-yl)-2-hydroxyethan-1-one] | 0.896 ± 0.186 | 1.23 ± 0.364 | –
9 | NC(=O)CN1CCN(c2ccc(C(F)(F)F)cc2)c2ccc(-c3cccc([C@H](O)CO)n3)cc2C1 [Compound 103, (S)-2-(7-(6-(1,2-dihydroxyethyl)pyridin-2-yl)-1-(4-(trifluoromethyl)phenyl)-1,2,3,5-tetrahydro-4H-benzo[e][1,4]diazepin-4-yl)acetamide] | – | 0.299 ± 0.068 | IC50 [1]: 1.05 ± 0.055 µM
10 | NC(=O)c1cccc(-c2ccc3c(c2)OCCC3c2ccc(C(F)(F)F)cc2)n1 (stereo not drawn) [Compound 110, 6-(4-(4-(trifluoromethyl)-phenyl)chroman-7-yl)-picolinamide] | 0.142 ± 0.038 | 0.161 ± 0.07 | –
11 | C[C@H](Nc1cc(C(N)=O)nc(-c2ccc3c(c2)OCCC3c2ccc(C(F)(F)F)cc2)n1)C(N)=O (stereo partly drawn) [Compound 111, 6-(((S)-1-amino-1-oxopropan-2-yl)amino)-2-(4-(4-(trifluoromethyl)phenyl)chroman-7-yl)pyrimidine-4-carboxamide] | 0.379 ± 0.044 | 0.459 ± 0.1 | –
12 | CC(C)CN1CCN(S(C)(=O)=O)Cc2cc(-c3cccc([C@H](O)CO)n3)ccc21 [Compound 124, (S)-1-(6-(1-isobutyl-4-(methylsulfonyl)-2,3,4,5-tetrahydro-1H-benzo-[e][1,4]diazepin-7-yl)pyridin-2-yl)ethane-1,2-diol] | – | 2.14 ± 0.586 | –
13 | CC(C)CN1CCN(S(C)(=O)=O)Cc2cc(-c3cccc([C@H](O)[C@@H](O)C(N)=O)n3)ccc21 [Compound 125, (2R,3S)-2,3-dihydroxy-3-(6-(1-isobutyl-4-(methylsulfonyl)-2,3,4,5-tetrahydro-1H-benzo[e][1,4]diazepin-7-yl)pyridin-2-yl)propanamide] | – | 7.1 ± 2.45 | –
14 | NC1=N[C@H](O)[C@H]2[C@H]3O[C@]4(O)O[C@@H]([C@@H](O)[C@@]2(N1)[C@@H]4O)[C@]3(O)CO [TTX, tetrodotoxin] | – | – | IC50 [3]: 10 nM; IC50 [4]: 50000 nM; IC50 [5]: 1000 nM; IC50 [6]: 6 nM; IC50 [7]: 15 nM; IC50 [8]: 10 nM
